Where two headings read alike, the source gives them in different places. Where a SMILES comes first, the peptide text is derived from it. Where no end group is shown, it is not given here. [ ]: non-standard residue; d: D form. Cha = N[C@@H](CC1CCCCC1)C(=O)O
How the values were obtained:
PTHR-delNt = target: T1, PTHR-delNt (Homo sapiens, UniProt Q03431, DEL24-181); test: Competition binding in COS-7 cell membranes with 125I-[Aib1,3,M]PTH(1-15)NH2 tracer; details: for IC50: COS-7 membranes cotransfected with negative-dominant Gαs, read-out: PTHR-delNT (COS-7) IC50
T1 construct: expressed in transfected cells; host or cells: COS-7 cells, transient co-transfection; membranes prepared
T1 sequence (Q03431 with tags, fused parts or gaps DEL24-181): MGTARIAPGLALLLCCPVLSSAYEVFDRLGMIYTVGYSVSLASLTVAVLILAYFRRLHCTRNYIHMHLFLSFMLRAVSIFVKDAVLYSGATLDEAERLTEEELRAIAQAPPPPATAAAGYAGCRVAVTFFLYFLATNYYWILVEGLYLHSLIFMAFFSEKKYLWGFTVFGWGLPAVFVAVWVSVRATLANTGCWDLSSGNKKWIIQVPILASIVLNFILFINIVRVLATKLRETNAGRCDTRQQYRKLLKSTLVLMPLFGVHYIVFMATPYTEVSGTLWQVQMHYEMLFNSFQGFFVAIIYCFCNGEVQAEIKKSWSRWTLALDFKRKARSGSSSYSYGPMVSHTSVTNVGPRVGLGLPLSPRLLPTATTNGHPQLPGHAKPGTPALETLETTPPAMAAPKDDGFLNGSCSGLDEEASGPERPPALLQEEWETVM
Protocol: PTHR-delNt is a derivative of the human PTHR that is deleted for most (Ala^24-Arg^181) of the amino-terminal extracellular domain (Shimizu, M., et al. (2001) Endocrinology 142:3068-3074). This PTHR construct was expressed in COS-7 cells via transient DNA transfection. For cAMP assays, the cells were transfected in 24-well plates using 0.2 μg of plasmid DNA and 0.6 μl of Fugene-6 reagent (Roche Diagnostics, Indianapolis Ind.) per well, and assays were performed on the intact cells three to four days after transfection. For binding assays, cell membranes were prepared from transfected COS-7 cells. To increase the maximal binding of ^125I-[Aib^1,3,M]PTH(1-15)NH2 to PTHR-delNt in these membranes, the cells were cotransfected with a negative dominant mutant Gαs protein (Gαs^ND). This mutant Gαs subunit is thought to couple to cognate receptors, and thus stabilize high affinity receptor conformations, more efficiently than does wild-type Gαs, without increasing basal cAMP levels (Berlot, C. H. (2002) J Biol Chem 277:21080-5). A precursor of this mutant Gαs, Gαs(α3β5), was recently used to increase binding of ^125I-[Aib^1,3,M]PTH(1-15)NH2 to PTHR-delNt in COS-7 cell membranes (Dean, T., (2006) Mol Endocrinol 20:931-942). Gαs^ND, which contains the same five amino acid replacement of corresponding Gαi residues in the α3β5 loop as Gαs(α3β5), plus the point mutations of Gly^226 to Ala, which increases affinity for Gβ/γ, and Ala^366 to Ser, which decreases affinity for GDP, yields approximately two-fold higher levels of specific binding of ^125I-[Aib^1,3,M]PTH(1-15)NH2 than does Gαs(α3β5) (data not shown). For the current membrane preparations, COS-7 cells were co-transfected in six-well plates using 1 μg of each plasmid DNA encoding PTHR-delNt and Gαs^ND, and 6 μl of Fugene-6 reagent (Roche Diagnostics, Indianapolis Ind.) per well. Cells were harvested three days after transfection, and membranes were prepared as described (Dean, T., et al. (2006) Mol Endocrinol 20:931-942).
Receptor binding—Binding to the wild-type human PTHR in intact HKRK-B7 cells and ROS 17/2.8 cells was assessed using ^125I-PTH(1-34) as a tracer radioligand, as described (Shimizu, M., (2001) Endocrinology 142:3068-3074). In brief, the cells in 24-well plates (about 500,000 cells per well) were incubated in binding buffer containing radioligand (about 100,000 cpm per well) with or without unlabeled peptide ligand (3×10^−9 to 1×10^−5 M) for four hours at 15° C. The binding mixture was then removed by aspiration, the cells were rinsed three times with binding buffer, lysed in 1 M NaOH, and the entire lysate was counted for gamma-irradiation in a gamma counter. Binding to PTHR-delNt in COS-7 cell membranes was assessed in 96-well, vacuum filtration plates (Multiscreen-Durapore HV, […] membranes, Millipore Corp., Millford, Mass.) using ^125I-[Aib^1,3,M]PTH(1-15)NH2 as a tracer radioligand, as described (Dean, T., (2006) Mol Endocrinol 20:931-942). In brief, cell membranes (20 μg/well) were incubated in membrane binding buffer containing radioligand (30,000 cpm/well) with or without unlabeled peptide ligand (3×10^−9 to 1×10^−5 M) for 90 minutes at 21° C. The plates were then subject to rapid vacuum filtration, the filters were washed once with buffer, detached from the plate and counted for gamma-irradiation in a gamma counter. Non-specific binding was defined as the binding observed in the presence of 1×10^−6 M PTH(1-31)NH2 for HKRK-B7 and ROS 17/2.8 cells, and 1×10^−6 M [Aib^1,3,M]PTH(1-15)NH2 for PTHR-delNt. Specifically bound radioactivity was calculated as a percentage of the radioactivity specifically bound in the absence of competing ligand. […]

[1] = Circular dichroism spectroscopy, helical residues per peptide chain; format: physicochemical; details: calculated from [θ]222
Protocol: Circular Dichroism—CD spectra were obtained on a JASCO J-600 spectropolarimeter at 20° C. Four spectra were averaged and the data smoothed by the JASCO software. The instrument was calibrated with ammonium (+)-10-camphorsulfonate. Peptide concentrations were verified from the absorption at 280 nm, using an extinction coefficient of 5700 M^−1 for the single tryptophan. Data are expressed as the number of helical residues per peptide chain, as calculated from −[θ]222×30/28,000, where [θ]222 is the mean residue elipticity ([θ]) at 222 nm, as was described previously (Barbier, J. R., et al. (2005) J Biol Chem. 280:23771-23777).

[2] = [Ala1,Arg19]hPTH(1-31)NH2 analogs

`CC[C@H](C)[C@H](NC(=O)[C@H](CCC(=O)O)NC(=O)[C@H](CO)NC(=O)[C@@H](NC(=O)[C@H](C)N)C(C)C)C(=O)N[C@@H](CCC(N)=O)C(=O)N[C@@H](CC(C)C)C(=O)N[C@@H](CCSC)C(=O)N[C@@H](Cc1c[nH]cn1)C(=O)N[C@@H](CC(N)=O)C(=O)N[C@@H](CC(C)C)C(=O)NCC(=O)N[C@@H](CCCCN)C(=O)N[C@@H](Cc1c[nH]cn1)C(=O)N[C@@H](CC(C)C)C(=O)N[C@@H](CC(N)=O)C(=O)N[C@@H](CO)C(=O)N[C@@H](CCSC)C(=O)N[C@@H](CCCNC(=N)N)C(=O)N[C@@H](CCCNC(=N)N)C(=O)N[C@H](C(=O)N[C@@H](CC1CCCCC1)C(=O)N[C@@H](Cc1c[nH]c2ccccc12)C(=O)N[C@@H](CC(C)C)C(=O)N[C@@H](CCCNC(=N)N)C(=O)N[C@@H](CCCCN)C(=O)N[C@@H](CCCCN)C(=O)N[C@@H](CC(C)C)C(=O)N[C@@H](CCC(N)=O)C(=O)N[C@@H](CC(=O)O)C(=O)N[C@H](C(N)=O)C(C)C)C(C)C` [Glu^22→Cha] (H-AVSEIQLMHNLGKHLNSMRRV[Cha]WLRKKLQDV-NH2; N-terminus assumed) gave an IC50 (PTHR-delNt; [2]) of 126 ± 45 nM and a CD helical residues [1, 2] of 8.
For `CC[C@H](C)[C@H](NC(=O)[C@H](CCC(=O)O)NC(=O)[C@H](CO)NC(=O)[C@@H](NC(=O)[C@H](C)N)C(C)C)C(=O)N[C@@H](CCC(N)=O)C(=O)N[C@@H](CC(C)C)C(=O)N[C@@H](CCSC)C(=O)N[C@@H](Cc1c[nH]cn1)C(=O)N[C@@H](CC(N)=O)C(=O)N[C@@H](CC(C)C)C(=O)NCC(=O)N[C@@H](CCCCN)C(=O)N[C@@H](Cc1c[nH]cn1)C(=O)N[C@@H](CC(C)C)C(=O)N[C@@H](CC(N)=O)C(=O)N[C@@H](CO)C(=O)N[C@@H](CCSC)C(=O)N[C@@H](CCCNC(=N)N)C(=O)N[C@@H](CCCNC(=N)N)C(=O)N[C@H](C(=O)N[C@@H](CCC(=O)O)C(=O)N[C@@H](Cc1c[nH]c2ccccc12)C(=O)N[C@@H](CC(C)C)C(=O)N[C@@H](CCCNC(=N)N)C(=O)N[C@@H](CCCCN)C(=O)N[C@@H](CCCCN)C(=O)N[C@@H](CC1CCCCC1)C(=O)N[C@@H](CCC(N)=O)C(=O)N[C@@H](CC(=O)O)C(=O)N[C@H](C(N)=O)C(C)C)C(C)C` [Leu^28→Cha] (H-AVSEIQLMHNLGKHLNSMRRVEWLRKK[Cha]QDV-NH2; N-terminus assumed), the IC50 (PTHR-delNt; [2]) was 226 ± 39 nM and the CD helical residues [1, 2] was 8.
“SVSEIQLMHNLGKHLNAMERVEWLRKKLQDV-NH2 [Ser^17→Ala]” showed an IC50 (PTHR-delNt; hPTH(1-31)NH2 analogs) of 4580 nM and a CD helical residues ([1]; hPTH(1-31)NH2 analogs) of 10.
For `CC[C@H](C)[C@H](NC(=O)[C@H](CCC(=O)O)NC(=O)[C@H](CO)NC(=O)[C@@H](NC(=O)[C@H](C)N)C(C)C)C(=O)N[C@@H](CCC(N)=O)C(=O)N[C@@H](CC(C)C)C(=O)N[C@@H](CCSC)C(=O)N[C@@H](Cc1c[nH]cn1)C(=O)N[C@@H](CC(N)=O)C(=O)N[C@@H](CC(C)C)C(=O)NCC(=O)N[C@@H](CCCCN)C(=O)N[C@@H](Cc1c[nH]cn1)C(=O)N[C@@H](CC(C)C)C(=O)N[C@@H](CC(N)=O)C(=O)N[C@@H](CO)C(=O)N[C@@H](CCSC)C(=O)N[C@@H](CCCNC(=N)N)C(=O)N[C@@H](CCCNC(=N)N)C(=O)N[C@H](C(=O)N[C@@H](CCC(=O)O)C(=O)N[C@@H](Cc1c[nH]c2ccccc12)C(=O)N[C@@H](CC(C)C)C(=O)N[C@@H](CCCNC(=N)N)C(=O)N[C@@H](CCCCN)C(=O)N[C@@H](CCCCN)C(=O)N[C@@H](CC(C)C)C(=O)N[C@@H](CC1CCCCC1)C(=O)N[C@@H](CC(=O)O)C(=O)N[C@H](C(N)=O)C(C)C)C(C)C` [Gln^29→Cha] (H-AVSEIQLMHNLGKHLNSMRRVEWLRKKL[Cha]DV-NH2; N-terminus assumed), the IC50 (PTHR-delNt; [2]) was 319 ± 57 nM and the CD helical residues [1, 2] was 8.
Molecule “SVSEIQLMHNLGKHLNSMERVEWLRKKLQAV-NH2 [Asp^30→Ala]” has an IC50 (PTHR-delNt; hPTH(1-31)NH2 analogs) of 1540 nM and a CD helical residues ([1]; hPTH(1-31)NH2 analogs) of 10.
For “AVSEIQLMHNLGKHLNSMRRVEELRKKLQDV-NH2 [Trp^23→Glu]”, the “effect on binding to PTHR-delNt (in words)” value (PTHR-delNt; COS-7 membranes) was “only mildly impaired binding to PTHR-delNt”, the “reduction (alteration) of binding affinity for PTHR-delNt relative to parent peptide” value (PTHR-delNt; COS-7 membranes, versus the respective parent peptide) was “less than three-fold” and the IC50 (PTHR-delNt; [2]) was 434 ± 84 nM. It also gave a CD helical residues [1, 2] of 7.
Work on `CC[C@H](C)[C@H](NC(=O)[C@H](CCC(=O)O)NC(=O)[C@H](CO)NC(=O)[C@@H](NC(=O)[C@H](C)N)C(C)C)C(=O)N[C@@H](CCC(N)=O)C(=O)N[C@@H](CC(C)C)C(=O)N[C@@H](CCSC)C(=O)N[C@@H](Cc1c[nH]cn1)C(=O)N[C@@H](CC(N)=O)C(=O)N[C@@H](CC(C)C)C(=O)NCC(=O)N[C@@H](CCCCN)C(=O)N[C@@H](Cc1c[nH]cn1)C(=O)N[C@@H](CC(C)C)C(=O)N[C@@H](CC(N)=O)C(=O)N[C@@H](CO)C(=O)N[C@@H](CCSC)C(=O)N[C@@H](CCCNC(=N)N)C(=O)N[C@@H](CCCNC(=N)N)C(=O)N[C@H](C(=O)N[C@@H](CCC(=O)O)C(=O)N[C@@H](Cc1c[nH]c2ccccc12)C(=O)N[C@@H](CC(C)C)C(=O)N[C@@H](CCCNC(=N)N)C(=O)N[C@@H](CCCCN)C(=O)N[C@@H](CCCCN)C(=O)N[C@@H](CC(C)C)C(=O)N[C@@H](CCC(N)=O)C(=O)N[C@@H](CC(=O)O)C(=O)N[C@@H](CC1CCCCC1)C(N)=O)C(C)C` [Val^31→Cha] (H-AVSEIQLMHNLGKHLNSMRRVEWLRKKLQD[Cha]-NH2; N-terminus assumed) yielded an IC50 (PTHR-delNt; [2]) of 466 ± 298 nM and a CD helical residues [1, 2] of 9.

From patent US8143374B2, “Polypeptide derivatives of parathyroid hormone (PTH)” (The General Hospital Corporation, priority 2006, dated 2012)
